Where a chain is given by its changes, count along the chain named.
What was measured:
[1] = target: T1, Type-1 angiotensin II receptor (Cavia porcellus, UniProt Q9WV26); assay: Binding affinity to angiotensin AT1 receptor in guinea pig adrenal cortex membranes; assay type: cell membranes, Membrane
T1 sequence (Q9WV26 whole entry): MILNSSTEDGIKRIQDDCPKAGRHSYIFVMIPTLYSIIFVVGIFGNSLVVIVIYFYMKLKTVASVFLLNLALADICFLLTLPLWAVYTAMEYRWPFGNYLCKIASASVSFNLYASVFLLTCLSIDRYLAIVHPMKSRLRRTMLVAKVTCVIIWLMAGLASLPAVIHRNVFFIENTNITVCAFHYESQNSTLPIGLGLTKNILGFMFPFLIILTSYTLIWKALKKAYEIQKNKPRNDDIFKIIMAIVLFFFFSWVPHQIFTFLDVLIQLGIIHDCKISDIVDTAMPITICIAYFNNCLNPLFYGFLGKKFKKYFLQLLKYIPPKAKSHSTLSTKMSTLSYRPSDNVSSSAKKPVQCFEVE

[2] = target: T2, Type-1 angiotensin II receptor (Bos taurus, UniProt P25104); assay: Displacement of radiolabeled angiotensin 2 from angiotensin AT1 receptor in bovine adrenal cortex membranes; assay type: cell membranes, Membrane
T2 sequence (P25104 whole entry): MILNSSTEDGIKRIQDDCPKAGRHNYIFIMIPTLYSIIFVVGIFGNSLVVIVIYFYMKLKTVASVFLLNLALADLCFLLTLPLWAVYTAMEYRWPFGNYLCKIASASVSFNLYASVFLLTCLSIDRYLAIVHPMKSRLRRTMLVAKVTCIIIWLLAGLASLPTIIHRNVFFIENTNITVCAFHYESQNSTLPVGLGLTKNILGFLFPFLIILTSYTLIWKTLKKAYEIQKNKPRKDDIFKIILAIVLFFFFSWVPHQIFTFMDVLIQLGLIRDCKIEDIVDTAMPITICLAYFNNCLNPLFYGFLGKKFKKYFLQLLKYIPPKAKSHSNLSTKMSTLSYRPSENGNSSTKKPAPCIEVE

[3] = target: T3, Type-1 angiotensin II receptor (Cavia porcellus) (UniProt Q9WV26); assay: Antagonist activity at angiotensin AT1 receptor in guinea pig aorta assessed as reduction of angiotensin 2-induced contractile response; assay type: functional, tissue-based
T3 sequence (whole entry): T1 sequence (Q9WV26 whole entry)

Rattus norvegicus [4] = assay: Antihypertensive activity in iv dosed renal hypertensive rat model assessed as reduction of blood pressure; assay type: functional
Rattus norvegicus [5] = assay: Antihypertensive activity in po dosed renal hypertensive rat model assessed as reduction of blood pressure; assay type: functional
[6] = target: T4, Type-1 angiotensin II receptor (Homo sapiens, UniProt P30556); assay: Antagonist activity at angiotensin AT1 receptor in human PLC-PRF5 cells; assay type: functional, cell-based
T4 sequence (P30556 whole entry): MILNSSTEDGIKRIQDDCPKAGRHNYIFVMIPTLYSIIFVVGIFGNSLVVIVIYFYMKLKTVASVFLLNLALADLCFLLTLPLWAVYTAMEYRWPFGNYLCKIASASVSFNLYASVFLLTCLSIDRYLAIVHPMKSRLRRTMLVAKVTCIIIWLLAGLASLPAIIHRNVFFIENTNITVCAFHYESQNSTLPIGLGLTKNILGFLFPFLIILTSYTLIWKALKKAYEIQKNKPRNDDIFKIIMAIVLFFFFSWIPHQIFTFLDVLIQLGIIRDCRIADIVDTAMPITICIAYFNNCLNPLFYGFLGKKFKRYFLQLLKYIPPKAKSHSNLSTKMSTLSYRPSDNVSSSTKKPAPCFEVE

[7] = target: T4, Type-1 angiotensin II receptor; assay: Displacement of [3H]-angiotensin 2 from angiotensin AT1 receptor in human PLC-PRF5 cells; assay type: cell-based
[8] = target: T5, Type-1 angiotensin II receptor (Oryctolagus cuniculus, UniProt P34976); assay: Displacement of [125I]-Sar1Ile8-angiotensin 2 from angiotensin AT1 receptor in rabbit aortic membranes; assay type: cell membranes
T5 sequence (P34976 whole entry): T4 sequence (P30556 whole entry) with I2M, V49A, I254V, I270V, R272H, R311K, T349S, A353V

Rattus norvegicus [9] = species: Rattus norvegicus; assay: Displacement of radiolabeled angiotensin2 from angiotensin AT1 receptor in rat adrenal cortex membranes; assay type: cell membranes; details: Membrane, concentration not given here
[10] = target: T5, Type-1 angiotensin II receptor; assay: Antagonist activity at angiotensin AT1 receptor in rabbit adrenal cortex assessed as inhibition of angiotensin 2-induced […] response; assay type: functional, tissue-based
[11] = target: T5, Type-1 angiotensin II receptor; assay: Antagonist activity at angiotensin AT1 receptor in rabbit aortic strip assessed as inhibition of angiotensin 2-induced contractile response; assay type: functional; details: read-out: pA2 (converted)
Rattus norvegicus [12] = assay: Antihypertensive activity in conscious normotensive rat at 0.1 mg/kg after 6 hrs; assay type: functional
Rattus norvegicus [13] = assay: Antihypertensive activity in iv dosed conscious rat; assay type: functional
Rhesus monkey = assay: Antihypertensive activity in rhesus monkey assessed as inhibition of angiotensin 2-induced pressor response at 10 mg/kg, po after 4 to 24 hrs; assay type: functional; details: Macaca mulatta
[14] = Oral bioavailability in rat; assay type: ADME, organism-based; details: in vivo
[15] = target: T4, Type-1 angiotensin II receptor; assay: Binding affinity to angiotensin AT1 receptor
[16] = Displacement of [125I]-angiotensin 2 from angiotensin AT1 receptor in rat liver membranes; assay type: cell membranes, Membrane
Rattus norvegicus [17] = assay: Antihypertensive activity in iv dosed anesthetized ganglionic blocked rat model assessed as reduction of angiotensin 2-induced response; assay type: functional, organism-based
[18] = target: T5, Type-1 angiotensin II receptor; assay: Antagonist activity at angiotensin AT1 receptor in rabbit thoracic aortic rings; assay type: functional; details: read-out: pA2 (converted)
[19] = target: T5, Type-1 angiotensin II receptor; assay: Antagonist activity at angiotensin AT1 receptor in rabbit aorta assessed as reduction of angiotensin 2-induced contractile response; assay type: functional, tissue-based; details: read-out: pA2 (converted)
[20] = Antagonist activity at angiotensin AT1 receptor in rat uterine membranes; assay type: functional, cell membranes
Rattus norvegicus [21] = assay: Cardiotoxicity in left renal artery-ligated hypertensive rat model assessed as reduction of heart rate at 0.3 to 3 mg/kg, administered intra-arterially for 6 days; assay type: toxicity, organism-based; set-up: dose 0.3-3 mg/kg; scale not given: the % may be the effect or the level left; details: in vivo, other, 144 h
Rattus norvegicus [22] = assay: Cardiotoxicity in left renal artery-ligated hypertensive rat model assessed as reduction of heart rate at 1 to 10 mg/kg, po for 6 days; assay type: toxicity, organism-based; set-up: dose 1-10 mg/kg, route oral; scale not given: the % may be the effect or the level left; details: in vivo, 144 h
[23] = target: T4, Type-1 angiotensin II receptor; assay: Displacement of [3H]-angiotensin 2 from angiotensin AT1 receptor
Homo sapiens = assay: Metabolic stability in iv and po dosed human assessed as conversion of EXP3174; assay type: ADME, organism-based; details: in vivo

Cc1cc(Sc2ccc(-c3ccccc3-c3nn[nH]n3)cc2)c2ccccc2n1
IC50 [1]: 370 nM

CCCc1nc(C(C)(C)O)c(C(=O)O)n1Cc1ccc(-c2ccccc2-c2nnn[nH]2)cc1 [OLMESARTAN]
IC50 [2]: 7.7 nM | pD2 [3]: 9.9

CCCc1nc(CN2CCN(c3ccccn3)CC2)c(C(=O)O)n1Cc1ccc(-c2ccccc2-c2nn[nH]n2)cc1
ED50 (Rattus norvegicus [4]): 0.18 mg/kg | ED50 (Rattus norvegicus [5]): 1.65 mg/kg

CCCCN1CC2(CN1Cc1ccc(-c3ccccc3-c3nnn[nH]3)cc1)C(=O)CCC2=O
IC50 [6]: 22 nM | Ki [7]: 25 nM

CCCCc1nn(CC(C)(C)C)c(=O)n1Cc1ccc(-c2ccccc2-c2nnn[nH]2)cc1
IC50 [8]: 1.2 nM

CCCc1nc(C)n(CCO)c(=O)c1Cc1ccc(-c2ccccc2-c2nnn[nH]2)cc1
inhibition (Rattus norvegicus [9]): 60%

CCOC(=O)/C=C1\N(Cc2ccc(-c3ccccc3-c3nn[nH]n3)cc2)C(=O)CC1(CC)CC
IC50 [10]: 100 nM | Kb [11]: 12.6 nM

CCCCc1nc(-c2ccccc2Cl)c(C(=O)O)n1Cc1ccc(-c2ccccc2-c2nn[nH]n2)cc1
Activity (Rattus norvegicus [12]): 88%

CCc1cc(Oc2ccc(-c3ccccc3-c3nnn[nH]3)cc2)c2ncccc2n1
ED50 (Rattus norvegicus [13]): 0.86 mg/kg | IC50 [1]: 24 nM

CCCCc1nn(-c2ccccc2C(F)(F)F)c(=O)n1Cc1ccc(-c2ccccc2S(=O)(=O)NC(=O)c2ccccc2)cc1 [L-159913]
inhibition in vivo at 10 mg/kg (Rhesus monkey): 76% | bioavailability [14]: 44% | Ki [15]: 1.7 nM

CCCc1nc(-n2cccc2C(=O)C(F)(F)F)c(C(=O)O)n1Cc1ccc(-c2ccccc2-c2nn[nH]n2)cc1
IC50 [16]: 0.8 nM | IC50 (Rattus norvegicus [17]): 6.2 mg/kg

CCCCc1nc2cc(OC)cc(C(=O)O)c2n1Cc1ccc(N(CC)C(C(=O)O)c2ccccc2)cc1 (stereo unspecified)
Kb [18]: 5.01 nM

CCCCc1nn(CCCC)c(=O)n1Cc1ccc(-c2ccccc2-c2nn[nH]n2)cc1
Kb [19]: 1.38 nM | IC50 [20]: 5.1 nM

CCCCc1nc(Cl)c(C(=O)O)n1Cc1ccc2oc(-c3ccccc3-c3nn[nH]n3)c(Br)c2c1 [ZOLASARTAN]
Activity (Rattus norvegicus [21]): < 15% | Activity (Rattus norvegicus [22]): < 15% | Ki [23]: 2 nM

CCCCc1nc(Cl)c(CO)n1Cc1ccc(-c2ccccc2-c2nn[nH]n2)cc1 [LOSARTAN]
Stability (Homo sapiens): 14%

— ChEMBL document CHEMBL1667742, “Angiotensin II receptor type 1 (AT1) selective nonpeptidic antagonists--a perspective” (Bioorg Med Chem, 2010)
